Laboratory results taken from US8178678B2, “Bis-quaternary ammonium salts and methods for modulating neuronal nicotinic acetylcholine receptors” (University of Kentucky Research Foundation, priority 2006, dated 2012).
Like-named read-outs stand apart in the source and are kept apart here.

Legend:
[1] = molecular target: T1, Rat Striatal Nicotinic Receptors ([^3H]NIC binding sites; α4β2) (Rattus norvegicus, UniProt P09483+P12390); experiment: Inhibition of [^3H]NIC binding
T1 construct: Whole brain, excluding cortex and cerebellum, was homogenized in 20 vol of ice-cold buffer; from tissue; host or cells: rat brain membranes (whole brain excluding cortex and cerebellum)

[2] = system: nicotinic receptors mediating S-nicotine-evoked [^3H]DA release in rat striatal slices; experiment: Inhibition of S-nicotine-evoked [^3H]dopamine release from superfused rat striatal slices; format: cell-based; settings: rat striatal slices; for inhibition at 0.1 µM: 1 h, 100 nM analog superfused 60 min before NIC 10 μM, read-out: [^3H]DA release, % inhibition of S-nicotine-evoked release
Procedure, shortened: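 Superfused rat striatal slices preloaded with 0.1 μM [3H]DA, in Krebs buffer with nomifensine and pargyline (10 μM each), 34 °C. Analogs (100 nM) given 60 min before 10 μM S-nicotine; tritium overflow by scintillation, inhibition expressed as percent of nicotine-evoked overflow without analog; full concentration-effect curves where […] given.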

[3] = molecular target: T2, Rat Striatal Nicotinic Receptors ([^3H]MLA binding sites; α7) (Rattus norvegicus, UniProt Q05941); experiment: Inhibition of [^3H]MLA (methyllycaconitine) binding
T2 construct: Whole brain, excluding cortex and cerebellum, was homogenized in 20 vol of ice-cold buffer; from tissue; host or cells: rat brain membranes (whole brain excluding cortex and cerebellum)
Procedure, shortened: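 Rat brain membranes were washed by repeated centrifugation at 25,000 g, with a 10 min incubation at 37° C. in between. Samples of 250 μl, containing 100-140 μg of membrane protein, 3 nM [^3H]-methyllycaconitine and test analog in 50 mM Tris assay buffer, were incubated in 96-well plates for 60 min at room temperature. Nonspecific binding was defined with 10 μM S-nicotine. Bound radioactivity was collected on polyethylenimine-soaked GF/B filter plates and counted on a TopCount.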

[4] = full concentration effect, 3 nM [^3H]NIC, nonspecific 10 μM cytisine, rat brain membranes, read-out: [^3H]NIC binding, Ki
[5] = full concentration effect, [^3H]MLA, nonspecific S-nicotine, rat brain membranes, read-out: [^3H]MLA binding, Ki

T2 sequence (Q05941 23-502): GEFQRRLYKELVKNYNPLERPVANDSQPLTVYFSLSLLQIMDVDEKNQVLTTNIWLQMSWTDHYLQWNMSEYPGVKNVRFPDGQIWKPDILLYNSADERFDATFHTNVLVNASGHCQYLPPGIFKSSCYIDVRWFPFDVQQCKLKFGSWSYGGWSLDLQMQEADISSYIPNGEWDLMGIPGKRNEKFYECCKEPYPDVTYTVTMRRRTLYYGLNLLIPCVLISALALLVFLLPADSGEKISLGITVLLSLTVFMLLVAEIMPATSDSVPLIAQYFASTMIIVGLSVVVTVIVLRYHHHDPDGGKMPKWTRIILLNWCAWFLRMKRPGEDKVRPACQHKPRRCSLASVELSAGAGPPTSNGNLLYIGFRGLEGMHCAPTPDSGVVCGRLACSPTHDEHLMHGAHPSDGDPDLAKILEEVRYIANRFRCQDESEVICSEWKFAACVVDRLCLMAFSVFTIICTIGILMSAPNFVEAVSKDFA
T1 sequence (P09483 31-630): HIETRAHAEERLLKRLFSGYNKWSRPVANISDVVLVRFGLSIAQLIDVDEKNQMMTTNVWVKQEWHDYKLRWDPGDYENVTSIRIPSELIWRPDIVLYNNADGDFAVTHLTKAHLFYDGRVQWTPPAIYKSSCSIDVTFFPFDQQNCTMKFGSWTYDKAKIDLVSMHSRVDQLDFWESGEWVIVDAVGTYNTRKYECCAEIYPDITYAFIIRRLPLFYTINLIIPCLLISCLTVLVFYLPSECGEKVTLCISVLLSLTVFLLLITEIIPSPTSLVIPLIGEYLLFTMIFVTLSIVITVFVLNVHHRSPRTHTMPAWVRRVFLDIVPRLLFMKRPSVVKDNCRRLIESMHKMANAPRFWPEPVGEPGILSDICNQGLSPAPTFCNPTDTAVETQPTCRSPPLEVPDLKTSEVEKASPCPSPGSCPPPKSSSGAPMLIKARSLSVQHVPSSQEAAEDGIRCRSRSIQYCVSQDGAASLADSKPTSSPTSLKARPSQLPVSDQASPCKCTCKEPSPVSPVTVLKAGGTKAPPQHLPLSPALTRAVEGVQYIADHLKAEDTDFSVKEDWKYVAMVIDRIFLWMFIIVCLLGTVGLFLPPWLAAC
T1 sequence (P12390 25-500): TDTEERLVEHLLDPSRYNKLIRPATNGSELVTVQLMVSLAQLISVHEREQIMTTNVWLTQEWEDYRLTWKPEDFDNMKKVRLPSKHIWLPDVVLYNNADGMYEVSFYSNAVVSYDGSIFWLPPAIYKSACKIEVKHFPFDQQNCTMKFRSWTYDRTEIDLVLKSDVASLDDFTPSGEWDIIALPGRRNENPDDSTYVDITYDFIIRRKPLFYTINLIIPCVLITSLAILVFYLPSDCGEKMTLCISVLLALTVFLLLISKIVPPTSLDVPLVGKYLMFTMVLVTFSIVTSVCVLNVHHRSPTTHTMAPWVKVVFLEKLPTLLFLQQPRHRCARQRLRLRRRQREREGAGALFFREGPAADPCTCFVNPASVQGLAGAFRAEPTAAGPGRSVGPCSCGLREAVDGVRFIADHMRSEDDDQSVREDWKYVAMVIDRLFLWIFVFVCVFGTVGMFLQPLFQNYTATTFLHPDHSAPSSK

Cc1ccc[n+](CCCC/C=C\C=C/CCCC[n+]2cccc(C)c2)c1 [Example 3, cis-cis-N,N′-(dodeca-5,7-diene-1,12-diyl)-bis-(3-methyl-pyridinium)dibromide]
Ki [1, 4]: > 100 µM
inhibition at 0.1 µM [2]: 31%
Ki [3, 5]: > 100 µM

Cc1cc[n+](CCCC/C=C\C=C/CCCC[n+]2ccc(C)cc2)cc1 [Example 4, cis-cis-N,N′-(dodeca-5,7-diene-1,12-diyl)-bis-(4-methyl-pyridinium)dibromide]
Ki [1, 4]: > 100 µM
inhibition at 0.1 µM [2]: 58%
Ki [3]: > 100 µM

CN1CCC[C@@H]1c1ccc[n+](CCCCc2ccc(CCCC[n+]3cccc([C@H]4CCCN4C)c3)cc2)c1 [Example 10, N,N′-[1,4-phenylenedi-(4-butanyl)]-bis-[3-(2′-S-1-methyl-pyrrolidin-2-yl)-pyridinium]dibromide]
Ki [1, 4]: 0.63 µM
inhibition at 0.1 µM [2]: 17%
Ki [3, 5]: > 100 µM

Cc1cccc[n+]1CCCCc1ccc(CCCC[n+]2ccccc2C)cc1 [Example 11, N,N′-[1,4-phenylenedi-(4-butanyl)]-bis-(2-methylpyridinium)dibromide]
Ki [1, 4]: 5.94 µM
inhibition at 0.1 µM [2]: 37%
Ki [3, 5]: > 100 µM

Cc1ccc[n+](CCCCc2ccc(CCCC[n+]3cccc(C)c3)cc2)c1 [Example 12, N,N′-[1,4-phenylenedi-(4-butanyl)]-bis-(3-methylpyridinium)dibromide]
Ki [1, 4]: > 100 µM
inhibition at 0.1 µM [2]: 44%
Ki [3, 5]: > 100 µM

Cc1cc[n+](CCCCc2ccc(CCCC[n+]3ccc(C)cc3)cc2)cc1 [Example 13, N,N′-[1,4-phenylenedi-(4-butanyl)]-bis-(4-methylpyridinium)dibromide]
Ki [1, 4]: > 100 µM
inhibition at 0.1 µM [2]: 32%
Ki [3, 5]: > 100 µM

Cc1cccc[n+]1CCCCC#CC#CCCCC[n+]1ccccc1C [Example 91, N,N′-(5,7-dodecadiyn-1,12-diyl)-bis-(2-methylpyridinium)dichloride]
Ki [1, 4]: 4.4 µM
inhibition at 0.1 µM [2]: 6%
Ki [3, 5]: 23.9 µM

Cc1ccc[n+](CCCCC#CC#CCCCC[n+]2cccc(C)c2)c1 [Example 92, N,N′-(5,7-dodecadiyn-1,12-diyl)-bis-(3-methylpyridinium)dichloride]
Ki [1]: 6.36 µM
inhibition at 0.1 µM [2]: 18%
Ki [3]: > 100 µM

Cc1cc[n+](CCCCC#CC#CCCCC[n+]2ccc(C)cc2)cc1 [Example 93, N,N′-(5,7-dodecadiyn-1,12-diyl)-bis-(4-methylpyridinium)dichloride]
Ki [1, 4]: 8.93 µM
inhibition at 0.1 µM [2]: 19%
Ki [3, 5]: 5.11 µM

Cc1cc[n+](CCCCC#CC#CCCCC[n+]2ccc(C)c(C)c2)cc1C [Example 94, N,N′-(5,7-dodecadiyn-1,12-diyl)-bis-(3,4-dimethylpyridinium)dichloride]
Ki [1, 4]: 8.6 µM
inhibition at 0.1 µM [2]: 21%
Ki [3, 5]: 24.1 µM

Cc1cc(C)c[n+](CCCCC#CC#CCCCC[n+]2cc(C)cc(C)c2)c1 [Example 95, N,N′-(5,7-dodecadiyn-1,12-diyl)-bis-(3,5-dimethylpyridinium)dichloride]
Ki [1]: > 100 µM
IC50 ([2]; NIC 10 μM): > 1 µM
Ki [3]: 25.6 µM

Cc1ccc[n+](CCC#Cc2ccc(C#CCC[n+]3cccc(C)c3)cc2)c1 [Example 97, N,N′-[(1,4-phenylene)-bis-(4-butynyl)]-bis-(3-methyl-pyridinium)dibromide]
Ki [1, 4]: 2.75 ± 0.4 µM
inhibition at 0.1 µM [2]: 21%
Ki [3, 5]: > 100 µM

Cc1cc[n+](CCC#Cc2ccc(C#CCC[n+]3ccc(C)cc3)cc2)cc1 [Example 98, N,N′-[(1,4-phenylene)-bis-(4-butynyl)]-bis-(4-methyl-pyridinium)dibromide]
Ki [1, 4]: 8.5 µM
inhibition at 0.1 µM [2]: 29%
Ki [3, 5]: > 100 µM

C(#Cc1ccc(C#CCC[n+]2ccc3c(c2)CCCC3)cc1)CC[n+]1ccc2c(c1)CCCC2 [Example 99, N,N′-[(1,4-phenylene)-bis-(4-butynyl)]-bis-(5,6,7,8-tetrahydroisoquiolinium)dibromide]
Ki [1, 4]: 8.04 µM
inhibition at 0.1 µM [2]: 14%
Ki [3, 5]: 0.87 µM
